Results taken from EP1285918A1, “C7 Ester substituted taxanes as antitumor agents” (Florida State University Research Foundation, Inc., priority 2001, dated 2003).
Read-outs that look alike come from different tables or passages of the source.

Assays:
[1] = test system: A2780 Human Ovarian Carcinoma Xenografts; settings: for MDS (n) / Complete Response / Partial Response / Stable Disease / Survivors / Toxic Deaths / Mean Score: i.v. qd x 1 (mg/kg: Taxol 24, 1351 75.3, 1401 107.6, 1418 107.6, Taxotere 70); for MDS (n): 2.0 g cut-off; for MDS (n) / Complete Response / Partial Response / Stable Disease / Survivors / Toxic Deaths: Day 60; for Mean Score: tumor score 1 to 10, group mean; for survival extension compared to Group 1 controls: i.v. qd x 1 (mg/kg: Taxol 24, 1418 107.6, Taxotere 70)
Description: Other antitumor compounds were similarly formulated. […] The dosing volume was 0.3 ml per 20 g mouse.
Female NCr-nude mice (implanted subcutaneously with 1 mm^3 A2780 ovarian carcinoma fragments in the flank) were sorted into treatment groups of five mice each, except for the Taxotere treatment group including six mice. […] Dosing was initiated on Day 1. The antitumor compounds were given i.v. at an estimated maximum tolerated dose (MTD) appropriate for each agent on a qd x 1 schedule (single administration of compound). […] Taxotere was given i.v. on a qd x 1 schedule at a dose of 70 mg/kg. The vehicle was administered i.v. to control mice in Group 1 on the qd x 1 schedule. Treatment groups are detailed in Table 7. The study was terminated on Day 60.
The results are summarized in Table 8 and include mean days of survival (MDS), number of toxic deaths, number of survivors, number of complete or partial responses, and number with stable disease. The mean days of survival is the number of days after which a neoplasm reached a size of 2.0 g and the animal was euthanized. A complete response is obtained if the tumor is not palpable at the end of the study. A partial response is obtained if the tumor shrinks to a size smaller than its size on Day 1 of the study.

HCT116 = experiment: In Vitro cytotoxicity measured by the cell colony formation assay; format: cell-based; settings: Homo sapiens, HCT-116; 72 h drug incubation, colonies counted after 7 days; concentration producing 50% inhibition of colony formation; read-out: IN VITRO ID 50 (nm) HCT116
SK-MES carcinoma = experiment: In vivo evaluation against SK-MES human lung carcinoma xenograft, i.v. (Example 11)
Description: Two antitumor compounds were formulated for an i.v. dosing regime prepared in the following vehicle: 10% ethanol, 10% Cremophor and 80% isotonic saline. […] Other compounds were formulated similarly.
The MTDs for the antitumor compounds were calculated from earlier single dose data for mice receiving i.v. administration of these compounds. […] Vehicle control animals were dosed twice intravenously with half the total volume being given separated by one hour. The study was terminated at Day 60.
The results are summarized in Table 1 and include mean days of survival (MDS), number of toxic deaths, number of survivors, number of complete or partial responses, and number with stable disease. The mean days of survival is the number of days after which a neoplasm reached a size of 1.5 g and the animal was euthanized. A complete response is obtained if the tumor is not palpable at the end of the study. A partial response is obtained if the tumor shrinks to a size smaller than its size on Day 1 of the study.
A tumor scoring system was designed to provide a more quantitative ranking of efficacy (therapeutic potential) among the antitumor agents evaluated against the different human solid tumor xenografts. Each mouse in a study was given a score of from 1 to 10 at the end of the study. The scores can be summarized as follows:
The individual score for each mouse was averaged into a mean score for each treatment group. […]

[2] = test system: MX-1 Human Breast Carcinoma Xenograft; settings: i.v. qd x 1 (Taxol 36 mg/kg split dose, 1393 72.6 mg/kg)
Description: Antitumor compounds were formulated for an i.v. dosing regime (single i.v. bolus on qd x 1 schedule) prepared in the following vehicle: 5% ethanol, 5% Cremophor and 90% isotonic saline. […] Other compounds were similarly formulated. […] The dosing volume was 0.3 ml per 20 g mouse.
All vehicle control animals in the split dosing regimes were dosed twice intravenously with half the total volume being given separated by one hour. The study was terminated on Day 60.
The mean days of survival is the number of days after which a neoplasm reached a size of 2.0 g and the animal was euthanized. A complete response is obtained if the tumor is not palpable at the end of the study. A partial response is obtained if the tumor shrinks to a size smaller than its size on Day 1 of the study. […]

[3] = test system: HCT116 Human Colon Carcinoma Xenograft; settings: HCT116, i.v. Day 1 (Taxol 36 mg/kg split dose, 1393 73 mg/kg single dose)
[4] = test system: A375 Human Melanoma Xenograft; settings: 10 mice/group, study end Day 60
Description: Female nu/nu mice (6-8 weeks of age; implanted subcutaneously with 1 mm^3 A375 melanoma fragments in the flank) were sorted into one control and four treatment groups of ten mice each (group mean tumor size of 96-98 mg). […] The study was terminated on Day 60.
The mean days of survival is the number of days after which a neoplasm reached a size of 2.0 g and the animal was euthanized. A complete response is obtained if the tumor is not palpable at the end of the study. A partial response is obtained if the tumor shrinks to a size smaller than its size on Day 1 of the study.

[5] = i.v. split dose qd x 1 at MTD (Taxol 36 mg/kg, 1393 72.1 mg/kg), 6 mice/group, Day 60
[6] = oral 36.5 mg/kg on Days 1, 15, 29 and 43 (q14dx3, cumulative 109.5 mg/kg)
[7] = oral 73 mg/kg on Day 1, then 21.9 mg/kg on Days 11, 21, 31 and 41 (cumulative 160.6 mg/kg)
[8] = tumor score 1 to 10, group mean

CCC(=O)O[C@H]1C[C@H]2OC[C@@]2(OC(C)=O)[C@H]2[C@H](OC(=O)c3ccccc3)[C@]3(O)C[C@H](OC(=O)[C@H](O)[C@H](C=C(C)C)NC(=O)OC(C)(C)C)C(C)=C([C@@H](O)C(=O)[C@]12C)C3(C)C [Compound 1351] was tested, and the total response rate ([1]; 1351 75.3 mg/kg i.v. qd x 1) was “at least 20%”, the “MDS (n)” value [1] was 23.0 ± 1.7 (4) days and the “Complete Response” value [1] was 0. The “Partial Response” value [1] was 1, the “Stable Disease” value [1] was 0 and the Survivors [1] was 1. The “Toxic Deaths” value [1] was 0, the “Mean Score” value [1] was 3.6 ± 1.1 and the IC50 (HCT116) was under 1 nM.

With CCC(=O)OC1CC2OCC2(OC(C)=O)C2C(OC(=O)c3ccccc3)C3(O)CC(OC(=O)C(O)C(NC(=O)OC(C)(C)C)c4ccco4)C(C)=C(C(O)C(=O)C12C)C3(C)C (stereo not drawn) [Compound 1393, 3'-Desphenyl-3'-(2-furyl)-7-propionyl taxotere] the “Complete Response” value (SK-MES carcinoma; [5]) was “six”, the Survivors ([2]; 6 mice/group, Day 60) was 6 and the Survivors ([3]; 5 mice/group, Day 60) was 5. It also gave a Survivors ([4]; 104 mg/kg single oral bolus) of 9, a Survivors [4, 6] of 4 and a Survivors [4, 7] of 9.

With CCC(=O)O[C@H]1C[C@H]2OC[C@@]2(OC(C)=O)[C@H]2[C@H](OC(=O)c3ccccc3)[C@]3(O)C[C@H](OC(=O)[C@H](O)[C@@H](NC(=O)OC(C)(C)C)c4ccco4)C(C)=C([C@@H](O)C(=O)[C@]12C)C3(C)C [Compound 1393, 3'-Desphenyl-3'-(2-furyl)-7-propionyl taxotere] the complete response rate (SK-MES carcinoma; 1393 72.1 mg/kg i.v.) was 100%, the “days between which complete responses occurred” value (SK-MES carcinoma; 1393 72.1 mg/kg i.v.) was 14 to 24 days and the “Complete Response” value (SK-MES carcinoma; [5]) was 6. For the same compound, the “Partial Response” value (SK-MES carcinoma; [5]) was 0, the “Stable Disease” value (SK-MES carcinoma; [5]) was 0 and the “Toxic Deaths” value (SK-MES carcinoma; [5]) was 0. The “Mean Score” value (SK-MES carcinoma; i.v. split dose qd x 1 at MTD (Taxol 36 mg/kg, 1393 72.1 mg/kg), tumor score 1 to 10 per mouse, group mean) was 10+0, the “Partial Response” value ([2]; 6 mice/group, Day 60) was 1 and the “Stable Disease” value ([2]; 6 mice/group, Day 60) was 0. For the same compound, the “Mean Score” value [2, 8] was 9.8 ± 0.2, the “Partial Response” value ([3]; 5 mice/group, Day 60) was 4 and the “Stable Disease” value ([3]; 5 mice/group, Day 60) was 0. The “Mean Score” value [3, 8] was 9.2 ± 0.2, the “Complete Response” value ([4]; 104 mg/kg single oral bolus) was 9 and the “Partial Response” value ([4]; 104 mg/kg single oral bolus) was 0. For the same compound, the “Stable Disease” value ([4]; 104 mg/kg single oral bolus) was 0, the “Toxic Deaths” value ([4]; 104 mg/kg single oral bolus) was 0 and the “Complete Response” value [4, 6] was 0. For the same compound, the “Partial Response” value [4, 6] was 1, the “Stable Disease” value [4, 6] was 3 and the “Toxic Deaths” value [4, 6] was 0. For the same compound, the “Complete Response” value [4, 7] was 8, the “Partial Response” value [4, 7] was 1 and the “Stable Disease” value [4, 7] was 0. The “Toxic Deaths” value [4, 7] was 1.

CCC(=O)O[C@H]1C[C@H]2OC[C@@]2(OC(C)=O)[C@H]2[C@H](OC(=O)c3ccccc3)[C@]3(O)C[C@H](OC(=O)[C@H](O)[C@@H](NC(=O)OC(C)(C)C)c4ccoc4)C(C)=C([C@@H](O)C(=O)[C@]12C)C3(C)C [Compound 1401] was tested, and the “MDS (n)” value [1] was 32.1 ± 3.9 (4) days, the “Complete Response” value [1] was 0 and the “Partial Response” value [1] was 0. For the same compound, the “Stable Disease” value [1] was 1, the Survivors [1] was 1 and the “Toxic Deaths” value [1] was 0. For the same compound, the “Mean Score” value [1] was 3.4 ± 0.4 and the IC50 (HCT116) was under 1 nM.

In the case of CCC(=O)O[C@H]1C[C@H]2OC[C@@]2(OC(C)=O)[C@H]2[C@H](OC(=O)c3ccccc3)[C@]3(O)C[C@H](OC(=O)[C@H](O)[C@@H](NC(=O)OC(C)(C)C)c4cccs4)C(C)=C([C@@H](O)C(=O)[C@]12C)C3(C)C [Compound 1418], the “MDS (n)” value [1] is reported as 32.0 ± 2.3 (5) days, the “Complete Response” value [1] is reported as 0 and the “Partial Response” value [1] is reported as 0. For the same compound, the “Stable Disease” value [1] was 0, the Survivors [1] was 0 and the “Toxic Deaths” value [1] was 0. The “Mean Score” value [1] was 3 ± 0, the “survival extension compared to Group 1 controls” value [1] was “approximately 300%” and the IC50 (HCT116) was under 1 nM.

For CC(=O)O[C@@]12CO[C@@H]1C[C@H](O)[C@@]1(C)C(=O)[C@H](O)C3=C(C)[C@@H](OC(=O)[C@H](O)[C@@H](NC(=O)OC(C)(C)C)c4ccccc4)C[C@@](O)([C@@H](OC(=O)c4ccccc4)[C@H]21)C3(C)C [docetaxel, reference compound], the “MDS (n)” value [1] was 27.4 ± 3.5 (5) days, the “Complete Response” value [1] was 0 and the “Partial Response” value [1] was 0. The “Stable Disease” value [1] was 0, the Survivors [1] was 0 and the “Toxic Deaths” value [1] was 0. The “Mean Score” value [1] was 2.5 ± 0.3, the “survival extension compared to Group 1 controls” value [1] was 134% and the IC50 (HCT116) was 0.6 nM.
